In patent publication US20110071180A1, “SUB-TYPE SELECTIVE AMIDES OF DIAZABICYCLOALKANES” (Targacept, Inc., priority 2008, published 2011):

Molecular target: T1, human α4β2 nAChR subtype (Homo sapiens, UniProt P17787+P43681)
T1 construct: expressed in transfected cells; host or cells: SH-EP1 clonal cells expressing human α4β2
Assay: Radioligand binding, [3H]nicotine, membranes from SH-EP1/human α4β2 clonal cells
Details: [3H]nicotine 5 nM, SH-EP1/human α4β2 cell membranes
Method: Preparation of membranes from SH-EP1/human α4β2 clonal cells: Cell pellets from 40 150 mm culture dishes were pooled, and homogenized by Polytron (Kinematica GmbH, Switzerland) in 20 milliliters of ice-cold preparative buffer. The homogenate was centrifuged at 48,000 g for 20 minutes at 4° C. The resulting pellet was re-suspended in 20 mL of ice-cold preparative buffer and stored at −20° C.
(§1) On the day of the assay, the frozen membranes were thawed and spun at 48,000×g for 20 min. The supernatant was decanted and discarded. The pellet was resuspended in Dulbecco's phosphate buffered saline (PBS, Life Technologies) pH 7.4 and homogenized with the Polytron for 6 seconds. Protein concentrations were determined using a Pierce BCA Protein Assay Kit, with bovine serum albumin as the standard (Pierce Chemical Company, Rockford, Ill.).
(§2) Membrane preparations (approximately 50 μg for human and 200-300 μg protein for rat α4β2) were incubated in PBS (50 μL and 100 μL respectively) in the presence of competitor compound (0.01 nM to 100 μM) and 5 nM [^3H]nicotine for 2-3 hours on ice. Incubation was terminated by rapid filtration on a multi-manifold tissue harvester (Brandel, Gaithersburg, Md.) using GF/B filters presoaked in 0.33% polyethyleneimine (w/v) to reduce non-specific binding. Tissue was rinsed 3 times in PBS, pH 7.4. Scintillation fluid was added to filters containing the washed tissue and allowed to equilibrate. Filters were then counted to determine radioactivity bound to the membranes by liquid scintillation counting (2200CA Tri-Carb LSC, Packard Instruments, 50% efficiency or Wallac Trilux 1450 MicroBeta, 40% efficiency, Perkin Elmer).
(§3) Data were expressed as disintegrations per minute (DPMs). Within each assay, each point had 2-3 replicates. The replicates for each point were averaged and plotted against the log of the drug concentration. IC50, which is the concentration of the compound that produces 50% inhibition of binding, was determined by least squares non-linear regression. Ki values were calculated using the Cheng-Prussof equation (1973): […]

T1 sequence (P43681 29-627 limits assumed): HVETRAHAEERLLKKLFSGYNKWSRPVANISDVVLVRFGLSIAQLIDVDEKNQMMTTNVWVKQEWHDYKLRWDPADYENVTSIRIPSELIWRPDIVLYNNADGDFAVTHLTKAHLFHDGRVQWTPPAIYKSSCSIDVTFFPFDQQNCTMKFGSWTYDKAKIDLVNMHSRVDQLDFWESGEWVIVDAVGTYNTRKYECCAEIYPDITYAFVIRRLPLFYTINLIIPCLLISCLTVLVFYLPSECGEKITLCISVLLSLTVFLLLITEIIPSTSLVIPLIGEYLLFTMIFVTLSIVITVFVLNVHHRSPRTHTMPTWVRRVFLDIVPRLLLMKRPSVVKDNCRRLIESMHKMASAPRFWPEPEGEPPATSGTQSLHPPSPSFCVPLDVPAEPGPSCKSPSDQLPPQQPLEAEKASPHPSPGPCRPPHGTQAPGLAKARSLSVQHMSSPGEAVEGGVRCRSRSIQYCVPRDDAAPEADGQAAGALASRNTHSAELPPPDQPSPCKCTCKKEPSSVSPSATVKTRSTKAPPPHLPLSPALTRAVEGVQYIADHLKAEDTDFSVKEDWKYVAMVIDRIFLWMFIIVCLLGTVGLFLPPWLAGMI
T1 sequence (P17787 26-502): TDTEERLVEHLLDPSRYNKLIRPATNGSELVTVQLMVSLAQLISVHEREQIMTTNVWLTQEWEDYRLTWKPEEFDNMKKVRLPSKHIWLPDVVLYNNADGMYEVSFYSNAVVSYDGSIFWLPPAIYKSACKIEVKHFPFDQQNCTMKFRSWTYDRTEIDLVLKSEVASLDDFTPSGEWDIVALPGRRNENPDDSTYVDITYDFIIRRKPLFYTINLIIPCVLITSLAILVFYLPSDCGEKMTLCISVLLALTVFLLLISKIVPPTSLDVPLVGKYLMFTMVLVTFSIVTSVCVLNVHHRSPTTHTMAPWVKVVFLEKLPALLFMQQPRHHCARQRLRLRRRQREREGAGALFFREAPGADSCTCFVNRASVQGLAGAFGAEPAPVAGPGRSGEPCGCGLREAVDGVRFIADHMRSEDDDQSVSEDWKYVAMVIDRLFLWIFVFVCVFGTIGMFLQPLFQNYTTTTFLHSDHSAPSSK

`O=C(Cc1cccnc1)N1CC2CNCC2C1` (stereo not drawn) [Example 10-6] was tested. Which Ki did it give?
Its Ki is 489 nM.

With `CC1(C)CC(C(=O)N2CC3CNCC3C2)C1` (stereo not drawn) [Example 10-50] as the molecule, how does the Ki read?
Its Ki is 129 nM.

With `O=C(C(O)c1ccccc1)N1CC2CNCC(C2)C1` (stereo not drawn) [Example 10-64] as the molecule, how does the Ki read?
The Ki was 1530 nM.

`COC(C(=O)N1CC2CNCC(C2)C1)c1ccccc1` (stereo not drawn) [Example 10-65] was tested. Which Ki did it give?
The Ki was 386 nM.

With `O=C(CC1CC1)N1CC2CNCC(C2)C1` [Example 10-83] as the molecule, how does the Ki read?
The Ki was 33.9 nM.

For `O=C(CS(=O)(=O)c1ccccc1)N1CC2CNCC(C2)C1` [Example 10-84], which Ki is on record?
Its Ki is 598 nM.

How did the Ki turn out when `CS(=O)(=O)CC(=O)N1CC2CNCC(C2)C1` [Example 10-85] was run?
The Ki was 131 nM.

With `O=C(C1CCCC1)N1CC2CNCC(C2)C1` [Example 10-86] as the molecule, how does the Ki read?
The Ki was 20.2 nM.

How did the Ki turn out when `O=C([C@H]1C[C@@H]1F)N1CC2CNCC(C2)C1` [Example 10-87] was run?
Its Ki is 5.2 nM.

Which Ki does the source give for `O=C([C@@H]1C[C@H]1F)N1CC2CNCC(C2)C1` [Example 10-88] here?
The Ki was 1.4 nM.

`O=C([C@@H]1C[C@@H]1F)N1CC2CNCC(C2)C1` [Example 10-89] was tested. Which Ki did it give?
The Ki was 1 nM.

Which Ki does the source give for `CC(F)(F)C(=O)N1CC2CNCC(C2)C1` [Example 10-90] here?
The Ki was 9.2 nM.

Molecular target: T2, α7 nAChR subtype (Rattus norvegicus, UniProt Q05941)
T2 construct: The hippocampus was removed and placed in 10 volumes (weight:volume) of ice-cold preparative buffer; from tissue; host or cells: rat hippocampus membranes (female Sprague-Dawley)
Assay: Radioligand binding, [3H]MLA, rat hippocampus membranes
Details: [3H]MLA 5 nM, rat hippocampus membranes; read-out: α7 Ki
Method: Rats (female, Sprague-Dawley), weighing 150-250 g, were maintained on a 12 h light/dark cycle and were allowed free access to water and food supplied by PMI Nutrition International, Inc. Animals were anesthetized with 70% CO2, then decapitated. Brains were removed and placed on an ice-cold platform. The hippocampus was removed and placed in 10 volumes (weight:volume) of ice-cold preparative buffer (137 mM NaCl, 10.7 mM KCl, 5.8 mM KH2PO4, 8 mM Na2HPO4, 20 mM HEPES (free acid), 5 mM iodoacetamide, 1.6 mM EDTA, pH 7.4); PMSF, dissolved in methanol to a final concentration of 100 μM, was added and the tissue suspension was homogenized by Polytron. The homogenate was centrifuged at 18,000×g for 20 min at 4° C. and the resulting pellet was re-suspended in 10 volumes of ice-cold water. After 60 min incubation on ice, a new pellet was collected by centrifugation at 18,000×g for 20 min at 4° C. The final pellet was re-suspended in 10 volumes of buffer and stored at −20° C. On the day of the assay, tissue was thawed, centrifuged at 18,000×g for 20 min, and then re-suspended in ice-cold PBS (Dulbecco's Phosphate Buffered Saline, 138 mM NaCl, 2.67 mM KCl, 1.47 mM KH2PO4, 8.1 mM Na2HPO4, 0.9 mM CaCl2, 0.5 mM MgCl2, Invitrogen/Gibco, pH 7.4) to a final concentration of approximately 2 mg protein/mL. Protein was determined by the method of Lowry et al., J. Biol. Chem. 193: 265 (1951), using bovine serum albumin as the standard.
The binding of [^3H]MLA was measured using a modification of the methods of Davies et al., Neuropharmacol. 38: 679 (1999). [^3H]MLA (Specific Activity=25-35 Ci/mmol) was obtained from Tocris. The binding of [^3H]MLA was determined using a 2 h incubation at 21° C. Incubations were conducted in 48-well micro-titre plates and contained about 200 μg of protein per well in a final incubation volume of 300 μL. The incubation buffer was PBS and the final concentration of [^3H]MLA was 5 nM. The binding reaction was terminated by filtration of the protein containing bound ligand onto glass fiber filters (GF/B, Brandel) using a Brandel Tissue Harvester at room temperature. Filters were soaked in de-ionized water containing 0.33% polyethyleneimine to reduce non-specific binding. Each filter was washed with PBS (3×1 mL) at room temperature. Non-specific binding was determined by inclusion of 50 μM non-radioactive MLA in selected wells.
The inhibition of [^3H]MLA binding by test compounds was determined by including seven different concentrations of the test compound in selected wells. Each concentration was replicated in triplicate. IC50 values were estimated as the concentration of compound that inhibited 50 percent of specific [^3H]MLA binding. Inhibition constants (Ki values), reported in nM, were calculated from the IC50 values using the method of Cheng et al., Biochem. Pharmacol. 22: 3099-3108 (1973).

T2 sequence (Q05941 23-502): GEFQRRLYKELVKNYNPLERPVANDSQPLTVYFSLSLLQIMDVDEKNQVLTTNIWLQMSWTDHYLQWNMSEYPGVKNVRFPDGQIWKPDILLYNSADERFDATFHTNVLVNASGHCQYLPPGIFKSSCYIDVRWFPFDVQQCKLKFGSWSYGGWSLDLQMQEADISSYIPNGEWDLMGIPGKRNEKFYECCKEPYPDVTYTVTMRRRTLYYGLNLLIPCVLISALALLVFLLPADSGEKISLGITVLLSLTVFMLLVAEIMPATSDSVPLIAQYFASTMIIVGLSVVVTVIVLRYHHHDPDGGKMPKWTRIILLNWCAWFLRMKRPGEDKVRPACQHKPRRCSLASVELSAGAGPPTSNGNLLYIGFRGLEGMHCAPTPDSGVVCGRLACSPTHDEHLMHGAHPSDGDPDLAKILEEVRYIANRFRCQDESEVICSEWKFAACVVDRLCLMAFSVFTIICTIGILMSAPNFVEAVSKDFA

`O=C(C1CCCC1)N1CC2CNCC(C2)C1` [Example 10-86] was tested. Which Ki did it give?
The Ki was 211 nM.

Same assay, conditions: read-out: α7 high through-put screening (HTS) result

For `O=C(Cc1cccnc1)N1CC2CNCC2C1` (stereo not drawn) [Example 10-6], which inhibition at 5 µM is on record?
The inhibition at 5 µM was under 50%.

How did the inhibition at 5 µM turn out when `CC1(C)CC(C(=O)N2CC3CNCC3C2)C1` (stereo not drawn) [Example 10-50] was run?
The inhibition at 5 µM was under 50%.

How did the inhibition at 5 µM turn out when `O=C(C(O)c1ccccc1)N1CC2CNCC(C2)C1` (stereo not drawn) [Example 10-64] was run?
Its inhibition at 5 µM is under 50%.

With `COC(C(=O)N1CC2CNCC(C2)C1)c1ccccc1` (stereo not drawn) [Example 10-65] as the molecule, how does the inhibition at 5 µM read?
The inhibition at 5 µM was under 50%.

For `O=C(CC1CC1)N1CC2CNCC(C2)C1` [Example 10-83], which inhibition at 5 µM is on record?
Its inhibition at 5 µM is under 50%.

For `O=C(CS(=O)(=O)c1ccccc1)N1CC2CNCC(C2)C1` [Example 10-84], which inhibition at 5 µM is on record?
Its inhibition at 5 µM is under 50%.

With `CS(=O)(=O)CC(=O)N1CC2CNCC(C2)C1` [Example 10-85] as the molecule, how does the inhibition at 5 µM read?
The inhibition at 5 µM was under 50%.

Which inhibition at 5 µM does the source give for `CC(F)(F)C(=O)N1CC2CNCC(C2)C1` [Example 10-90] here?
Its inhibition at 5 µM is under 50%.

Same assay, conditions: α7 Ki

With `O=C([C@H]1C[C@@H]1F)N1CC2CNCC(C2)C1` [Example 10-87] as the molecule, how does the Ki read?
The Ki was 592 nM.

How did the Ki turn out when `O=C([C@@H]1C[C@H]1F)N1CC2CNCC(C2)C1` [Example 10-88] was run?
Its Ki is 243 nM.

`O=C([C@@H]1C[C@@H]1F)N1CC2CNCC(C2)C1` [Example 10-89] was tested. Which Ki did it give?
Its Ki is 73.4 nM.

Molecular target: T3, rat α4β2 nAChR subtype (Rattus norvegicus, UniProt P09483+P12390)
T3 construct: The cerebral cortex was removed and placed in 20 volumes (weight:volume) of ice-cold preparative buffer; from tissue; host or cells: rat cerebral cortex membranes (female Sprague-Dawley)
Assay: Radioligand binding, [3H]nicotine, rat cortex membranes
Details: [3H]nicotine 5 nM
Method: Preparation of Membranes from Rat Cortex: Rats (Female, Sprague-Dawley), weighing 150-250 g, were maintained on a 12 h light/dark cycle and were allowed free access to water and food supplied by PMI Nutrition International, Inc. Animals were anesthetized with 70% CO2, and then decapitated. Brains were removed and placed on an ice-cold platform. The cerebral cortex was removed and placed in 20 volumes (weight:volume) of ice-cold preparative buffer (137 mM NaCl, 10.7 mM KCl, 5.8 mM KH2PO4, 8 mM Na2HPO4, 20 mM HEPES (free acid), 5 mM iodoacetamide, 1.6 mM EDTA, pH 7.4); PMSF, dissolved in methanol to a final concentration of 100 μM, was added and the suspension was homogenized by Polytron. The homogenate was centrifuged at 18,000×g for 20 min at 4° C. and the resulting pellet was re-suspended in 20 volumes of ice-cold water. After 60 min incubation on ice, a new pellet was collected by centrifugation at 18,000×g for 20 min at 4° C. The final pellet was re-suspended in 10 volumes of buffer and stored at −20° C.
as §1, §2, §3

T3 sequence (P09483 31-630): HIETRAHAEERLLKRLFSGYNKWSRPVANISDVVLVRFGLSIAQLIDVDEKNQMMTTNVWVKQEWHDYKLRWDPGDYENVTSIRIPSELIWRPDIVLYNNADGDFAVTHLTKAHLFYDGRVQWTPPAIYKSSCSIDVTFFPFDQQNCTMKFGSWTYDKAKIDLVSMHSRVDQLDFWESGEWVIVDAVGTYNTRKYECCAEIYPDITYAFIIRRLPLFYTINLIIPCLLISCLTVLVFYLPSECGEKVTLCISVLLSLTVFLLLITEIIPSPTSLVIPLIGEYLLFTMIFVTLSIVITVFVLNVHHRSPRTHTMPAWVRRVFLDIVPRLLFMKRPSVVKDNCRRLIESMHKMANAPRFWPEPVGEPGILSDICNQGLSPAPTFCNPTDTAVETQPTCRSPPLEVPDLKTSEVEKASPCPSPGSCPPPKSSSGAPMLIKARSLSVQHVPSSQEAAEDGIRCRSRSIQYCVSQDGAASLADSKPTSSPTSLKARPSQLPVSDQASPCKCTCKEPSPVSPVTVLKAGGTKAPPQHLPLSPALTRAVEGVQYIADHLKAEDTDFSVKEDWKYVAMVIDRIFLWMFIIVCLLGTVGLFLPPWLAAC
T3 sequence (P12390 25-500): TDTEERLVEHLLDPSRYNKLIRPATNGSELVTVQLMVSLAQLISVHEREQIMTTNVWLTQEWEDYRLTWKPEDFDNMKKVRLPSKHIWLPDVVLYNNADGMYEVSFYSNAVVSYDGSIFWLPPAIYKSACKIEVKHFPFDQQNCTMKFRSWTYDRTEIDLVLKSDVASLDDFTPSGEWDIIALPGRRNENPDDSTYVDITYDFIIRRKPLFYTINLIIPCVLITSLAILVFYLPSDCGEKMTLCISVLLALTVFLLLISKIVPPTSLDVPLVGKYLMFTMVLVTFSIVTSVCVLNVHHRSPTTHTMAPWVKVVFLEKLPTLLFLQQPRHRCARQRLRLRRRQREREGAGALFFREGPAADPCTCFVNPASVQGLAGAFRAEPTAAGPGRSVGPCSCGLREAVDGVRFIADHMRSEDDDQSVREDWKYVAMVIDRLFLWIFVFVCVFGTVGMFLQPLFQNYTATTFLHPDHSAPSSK

For `O=C(CC1CC1)N1CC2CNCC(C2)C1` [Example 10-83], which Ki is on record?
The Ki was 13.3 nM.

For `O=C(CS(=O)(=O)c1ccccc1)N1CC2CNCC(C2)C1` [Example 10-84], which Ki is on record?
Its Ki is 959 nM.

With `CS(=O)(=O)CC(=O)N1CC2CNCC(C2)C1` [Example 10-85] as the molecule, how does the Ki read?
Its Ki is 190 nM.

Which Ki does the source give for `O=C(C1CCCC1)N1CC2CNCC(C2)C1` [Example 10-86] here?
The Ki was 26.6 nM.

With `O=C([C@H]1C[C@@H]1F)N1CC2CNCC(C2)C1` [Example 10-87] as the molecule, how does the Ki read?
Its Ki is 11.4 nM.

How did the Ki turn out when `O=C([C@@H]1C[C@H]1F)N1CC2CNCC(C2)C1` [Example 10-88] was run?
Its Ki is 1.8 nM.

`O=C([C@@H]1C[C@@H]1F)N1CC2CNCC(C2)C1` [Example 10-89] was tested. Which Ki did it give?
Its Ki is 0.8 nM.

`CC(F)(F)C(=O)N1CC2CNCC(C2)C1` [Example 10-90] was tested. Which Ki did it give?
The Ki was 14.6 nM.

Molecular target: T3, rat α4β2 nAChR subtype
Assay: as above
Details: 5 μM compound, 5 nM 3H-nicotine; Ki not determined

With `O=C(Cc1cccnc1)N1CC2CNCC2C1` (stereo not drawn) [Example 10-6] as the molecule, how does the “Rat α4β2 high through-put screening (HTS) result” value read?
The value was “ND; failed HTS (the compound failed to inhibit, at 5 μM concentration, the binding of 5 nM ^3H-nicotine by at least 50%)”.

`CC1(C)CC(C(=O)N2CC3CNCC3C2)C1` (stereo not drawn) [Example 10-50] was tested. Which “Rat α4β2 high through-put screening (HTS) result” value did it give?
Its value is “ND; failed HTS (the compound failed to inhibit, at 5 μM concentration, the binding of 5 nM ^3H-nicotine by at least 50%)”.

Which “Rat α4β2 high through-put screening (HTS) result” value does the source give for `O=C(C(O)c1ccccc1)N1CC2CNCC(C2)C1` (stereo not drawn) [Example 10-64] here?
The value was “ND; failed HTS (the compound failed to inhibit, at 5 μM concentration, the binding of 5 nM ^3H-nicotine by at least 50%)”.

How did the “Rat α4β2 high through-put screening (HTS) result” value turn out when `COC(C(=O)N1CC2CNCC(C2)C1)c1ccccc1` (stereo not drawn) [Example 10-65] was run?
The value was “ND; failed HTS (the compound failed to inhibit, at 5 μM concentration, the binding of 5 nM ^3H-nicotine by at least 50%)”.
